Test results published in ChEMBL document CHEMBL2413072, “Synthesis and in vitro anticancer studies of novel C-2 arylidene congeners of lantadenes” (2013).

Key:
Assay type in all cases: functional
T47D = assay: Growth inhibition of human T47D cells assessed as cell growth at 10^-4 M by sulforhodamine B assay; conditions: read-out: Activity
OVCAR-8 [1] = assay: Growth inhibition of human OVCAR8 cells assessed as cell growth at 10^-8 M by sulforhodamine B assay; conditions: read-out: Activity
NCI-H460 = assay: Growth inhibition of human NCI-H460 cells by sulforhodamine B assay
MCF7 [2] = assay: Growth inhibition of human MCF7 cells assessed as cell growth at 10^-6 M by sulforhodamine B assay; conditions: read-out: Activity
HCT-116 [3] = assay: Growth inhibition of human HCT116 cells assessed as cell growth at 10^-7 M by sulforhodamine B assay; conditions: read-out: Activity
SNB-75 [4] = assay: Growth inhibition of human SNB75 cells assessed as cell growth at 10^-8 M by sulforhodamine B assay; conditions: read-out: Activity
[5] = Growth inhibition of human Hs 578T cells assessed as cell growth at 10^-4 M by sulforhodamine B assay; conditions: read-out: Activity
NCI-H522 [6] = assay: Growth inhibition of human NCI-H522 cells by sulforhodamine B assay
OVCAR-3 = assay: Growth inhibition of human OVCAR3 cells assessed as cell growth at 10^-4 M by sulforhodamine B assay; conditions: read-out: Activity
UO-31 = assay: Growth inhibition of human UO31 cells assessed as cell growth at 10^-4 M by sulforhodamine B assay; conditions: read-out: Activity
NCI-H522 [7] = assay: Growth inhibition of human NCI-H522 cells assessed as cell growth at 10^-4 M by sulforhodamine B assay; conditions: read-out: Activity
RXF 393 = assay: Growth inhibition of human RXF393 cells assessed as cell growth at 10^-4 M by sulforhodamine B assay; conditions: read-out: Activity
SNB-19 = assay: Growth inhibition of human SNB19 cells by sulforhodamine B assay
OVCAR-5 = assay: Growth inhibition of human OVCAR5 cells assessed as cell growth at 10^-4 M by sulforhodamine B assay; conditions: read-out: Activity
NCI-H226 = assay: Growth inhibition of human NCI-H226 cells assessed as cell growth at 10^-6 M by sulforhodamine B assay; conditions: read-out: Activity
SK-OV-3 [8] = assay: Growth inhibition of human SKOV3 cells assessed as cell growth at 10^-4 M by sulforhodamine B assay; conditions: read-out: Activity
K562 = assay: Growth inhibition of human K562 cells assessed as cell growth at 10^-4 M by sulforhodamine B assay; conditions: read-out: Activity
OVCAR-8 [9] = assay: Growth inhibition of human OVCAR8 cells by sulforhodamine B assay
ACHN = assay: Growth inhibition of human ACHN cells assessed as cell growth at 10^-6 M by sulforhodamine B assay; conditions: read-out: Activity
OVCAR-8 [10] = assay: Growth inhibition of human OVCAR8 cells assessed as cell growth at 10^-4 M by sulforhodamine B assay; conditions: read-out: Activity
SK-OV-3 [11] = assay: Growth inhibition of human SKOV3 cells assessed as cell growth at 10^-6 M by sulforhodamine B assay; conditions: read-out: Activity
CAKI-1 = assay: Growth inhibition of human CAKI-1 cells assessed as cell growth at 10^-7 M by sulforhodamine B assay; conditions: read-out: Activity
TK-10 = assay: Growth inhibition of human TK10 cells assessed as cell growth at 10^-6 M by sulforhodamine B assay; conditions: read-out: Activity
SNB-75 [12] = assay: Growth inhibition of human SNB75 cells assessed as cell growth at 10^-7 M by sulforhodamine B assay; conditions: read-out: Activity
MCF7 [13] = assay: Growth inhibition of human MCF7 cells assessed as cell growth at 10^-4 M by sulforhodamine B assay; conditions: read-out: Activity
KM12 = assay: Growth inhibition of human KM12 cells assessed as cell growth at 10^-8 M by sulforhodamine B assay; conditions: read-out: Activity
SN12C = assay: Growth inhibition of human SN12C cells assessed as cell growth at 10^-7 M by sulforhodamine B assay; conditions: read-out: Activity
CCRF-CEM = assay: Growth inhibition of human CCRF-CEM cells assessed as cell growth at 10^-7 M by sulforhodamine B assay; conditions: read-out: Activity
OVCAR-8 [14] = assay: Growth inhibition of human OVCAR8 cells assessed as cell growth at 10^-7 M by sulforhodamine B assay; conditions: read-out: Activity
SR = assay: Growth inhibition of human SR cells assessed as cell growth at 10^-7 M by sulforhodamine B assay; conditions: read-out: Activity
LOX IMVI [15] = assay: Growth inhibition of human LOXIMVI cells assessed as cell growth at 10^-8 M by sulforhodamine B assay; conditions: read-out: Activity
HCT-116 [16] = assay: Growth inhibition of human HCT116 cells assessed as cell growth at 10^-8 M by sulforhodamine B assay; conditions: read-out: Activity
SK-MEL-2 = assay: Growth inhibition of human SK-MEL-2 cells assessed as cell growth at 10^-7 M by sulforhodamine B assay; conditions: read-out: Activity
HCT-116 [17] = assay: Growth inhibition of human HCT116 cells assessed as cell growth at 10^-4 M by sulforhodamine B assay; conditions: read-out: Activity
UACC-62 = assay: Growth inhibition of human UACC62 cells by sulforhodamine B assay
M14 = assay: Growth inhibition of human M14 cells assessed as cell growth at 10^-4 M by sulforhodamine B assay; conditions: read-out: Activity
Malme-3M = assay: Growth inhibition of human MALME-3M cells assessed as cell growth at 10^-7 M by sulforhodamine B assay; conditions: read-out: Activity
HL-60(TB) = assay: Growth inhibition of human HL-60(TB) cells assessed as cell growth at 10^-6 M by sulforhodamine B assay; conditions: read-out: Activity
HT-29 = assay: Growth inhibition of human HT-29 cells assessed as cell growth at 10^-7 M by sulforhodamine B assay; conditions: read-out: Activity
IGROV-1 = assay: Growth inhibition of human IGROV1 cells by sulforhodamine B assay
MDA-MB-435 = assay: Growth inhibition of human MDA-MB-435 cells assessed as cell growth at 10^-6 M by sulforhodamine B assay; conditions: read-out: Activity
LOX IMVI [18] = assay: Growth inhibition of human LOXIMVI cells assessed as cell growth at 10^-6 M by sulforhodamine B assay; conditions: read-out: Activity
HOP-62 = assay: Growth inhibition of human HOP62 cells assessed as cell growth at 10^-4 M by sulforhodamine B assay; conditions: read-out: Activity
[19] = read-out: LC50 (the source's name)
[20] = read-out: pLC50 (the source's name) (converted)

## C/C=C(/C)C(=O)O[C@@H]1CC(C)(C)C[C@H]2C3=CC[C@@H]4[C@@]5(C)CC[C@H](O)C(C)(C)[C@@H]5CC[C@@]4(C)[C@]3(C)CC[C@@]12C(=O)O [Reduced Lantadene A]
T47D
  growth at 100 µM: -36%
OVCAR-8 [1]
  growth at 0.01 µM: 98%
NCI-H460; read-out: GI50
  GI50: 2.84 µM
NCI-H460; read-out: LC50
  LC50: > 100 µM
NCI-H460; read-out: TGI
  TGI: 11.7 µM
NCI-H460; read-out: pGI50 (converted)
  GI50: 2.82 µM
NCI-H460; read-out: pLC50 (converted)
  LC50: > 100 µM
NCI-H460; read-out: pTGI (converted)
  TGI: 11.7 µM
MCF7 [2]
  growth at 1 µM: 88%
HCT-116 [3]
  growth at 0.1 µM: 95%
SNB-75 [4]
  growth at 0.01 µM: 78%
[5]
  growth at 100 µM: -38%
NCI-H522 [6]; read-out: GI50
  GI50: 2.18 µM
NCI-H522 [6]; [19]
  CC50: 32.4 µM
NCI-H522 [6]; read-out: TGI
  TGI: 5.42 µM
NCI-H522 [6]; read-out: pGI50 (converted)
  GI50: 2.19 µM
NCI-H522 [6]; [20]
  CC50: 32.4 µM
NCI-H522 [6]; read-out: pTGI (converted)
  TGI: 5.37 µM
OVCAR-3
  growth at 100 µM: -48%
UO-31
  growth at 100 µM: -66%
NCI-H522 [7]
  growth at 100 µM: -66%
RXF 393
  growth at 100 µM: -76%
SNB-19; read-out: GI50
  GI50: 1.65 µM
SNB-19; read-out: TGI
  TGI: 3.37 µM
SNB-19; read-out: pGI50 (converted)
  GI50: 1.66 µM
SNB-19; read-out: pTGI (converted)
  TGI: 3.39 µM
OVCAR-5
  growth at 100 µM: -73%
NCI-H226
  growth at 1 µM: 83%
SK-OV-3 [8]
  growth at 100 µM: 4%
K562
  growth at 100 µM: -2%
OVCAR-8 [9]; read-out: GI50
  GI50: 1.92 µM
OVCAR-8 [9]; read-out: TGI
  TGI: 3.87 µM
OVCAR-8 [9]; read-out: pGI50 (converted)
  GI50: 1.91 µM
OVCAR-8 [9]; read-out: pTGI (converted)
  TGI: 3.89 µM
ACHN
  growth at 1 µM: 87%
OVCAR-8 [10]
  growth at 100 µM: -39%
SK-OV-3 [11]
  growth at 1 µM: 98%
CAKI-1
  growth at 0.1 µM: 96%
TK-10
  growth at 1 µM: 106%
SNB-75 [12]
  growth at 0.1 µM: 78%
MCF7 [13]
  growth at 100 µM: -39%
KM12
  growth at 0.01 µM: 104%
SN12C
  growth at 0.1 µM: 92%
CCRF-CEM
  growth at 0.1 µM: 100%
OVCAR-8 [14]
  growth at 0.1 µM: 99%
SR
  growth at 0.1 µM: 81%
LOX IMVI [15]
  growth at 0.01 µM: 97%
HCT-116 [16]
  growth at 0.01 µM: 97%
SK-MEL-2
  growth at 0.1 µM: 106%
HCT-116 [17]
  growth at 100 µM: -62%
UACC-62; read-out: GI50
  GI50: 1.56 µM
UACC-62; [19]
  CC50: 7.83 µM
UACC-62; read-out: TGI
  TGI: 3.5 µM
UACC-62; read-out: pGI50 (converted)
  GI50: 1.55 µM
UACC-62; [20]
  CC50: 7.76 µM
UACC-62; read-out: pTGI (converted)
  TGI: 3.47 µM
M14
  growth at 100 µM: -48%
Malme-3M
  growth at 0.1 µM: 94%
HL-60(TB)
  growth at 1 µM: 99%
HT-29
  growth at 0.1 µM: 108%
IGROV-1; read-out: GI50
  GI50: 2.32 µM
IGROV-1; [19]
  CC50: 9.24 µM
IGROV-1; read-out: TGI
  TGI: 4.63 µM
IGROV-1; read-out: pGI50 (converted)
  GI50: 2.29 µM
IGROV-1; [20]
  CC50: 9.33 µM
IGROV-1; read-out: pTGI (converted)
  TGI: 4.68 µM
MDA-MB-435
  growth at 1 µM: 90%
LOX IMVI [18]
  growth at 1 µM: 97%
HOP-62
  growth at 100 µM: -37%
